{"source": "paper PMC5053523", "about": "“In Vitro Antibacterial Activity of Rhodanine Derivatives against Pathogenic Clinical Isolates” (PLoS ONE, 2016)", "key": {"Acinetobacter baumannii": {"test_system": "Acinetobacter baumannii", "assay": "MIC with/without sub-MIC colistin, Acinetobacter baumannii", "type": "cell-based", "summary_of_the_method": "(§1)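 Rhodanines and control antibiotics are tested for MIC against Gram-negative bacteria while a sub-inhibitory level of colistin or PMBN is present. A strain of E. coli lacking the AcrAB efflux pump (SM1411ΔacrAB) serves as an additional test organism.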"}, "[1]": {"test_system": "methicillin-resistant Staphylococcus aureus (MRSA)", "assay": "Broth microdilution MIC/MBC, MRSA", "type": "cell-based"}, "P. aeruginosa": {"test_system": "P. aeruginosa", "assay": "Broth microdilution MIC, P. aeruginosa", "type": "cell-based", "conditions": "Pseudomonas aeruginosa"}, "K. pneumoniae": {"test_system": "K. pneumoniae", "assay": "Broth microdilution MIC, K. pneumoniae", "type": "cell-based"}, "[2]": {"test_system": "vancomycin resistant enterococci (VRE) E. faecium", "assay": "Broth microdilution MIC/MBC, VRE E. faecium", "type": "cell-based", "conditions": "for MIC: read-out: MIC"}, "Bacillus Strains": {"test_system": "Bacillus Strains", "assay": "Broth microdilution MIC50/MIC90 and MIC range, Bacillus strains panel", "type": "cell-based, Bacillus spp.", "conditions": "10 Bacillus strains", "from_the_text": "The broth microdilution technique was used, followed by subculturing on agar plates that were rhodanine—free. […] The MICs reported represent the lowest concentration of each compound necessary to inhibit bacterial growth and the MBCs represent the lowest concentration required to reduce the initial bacterial inoculum by ≥ 99.9%."}, "Pseudomonas aeruginosa": {"test_system": "Pseudomonas aeruginosa", "assay": "MIC with/without PMBN, Pseudomonas aeruginosa", "type": "cell-based", "summary_of_the_method": "as §1"}, "[3]": {"test_system": "vancomycin resistant enterococci (VRE) E. faecalis", "assay": "Broth microdilution MIC/MBC, VRE E. faecalis", "type": "cell-based", "conditions": "for MIC: read-out: MIC"}, "MRSA USA300": {"test_system": "MRSA USA300", "assay": "MIC against MRSA USA300 with and without 4% human serum albumin", "type": "cell-based, Staphylococcus aureus", "conditions": "Staphylococcus aureus, read-out: MIC against MRSA USA300", "summary_of_the_method": "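Broth microdilution MIC per CLSI against MRSA USA300, run in tryptic soy broth alone and with 4% human serum albumin. MIC is the lowest concentration inhibiting growth.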"}, "Clostridium difficile": {"test_system": "Clostridium difficile", "assay": "MIC against Clostridium difficile, anaerobic broth dilution", "type": "cell-based", "conditions": "Clostridioides difficile", "summary_of_the_method": "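Clinical C. difficile isolates grown anaerobically 48 h at 37 °C, suspended to 0.5 McFarland and diluted 1:300 in pre-reduced supplemented Brain Heart Infusion broth. Compounds serially diluted; plates incubated anaerobically at 37 °C for 48 h. MIC = lowest concentration with no visible growth.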"}, "Klebsiella pneumoniae": {"test_system": "Klebsiella pneumoniae", "assay": "MIC with/without PMBN, Klebsiella pneumoniae", "type": "cell-based", "summary_of_the_method": "as §1"}, "Candida albicans": {"test_system": "Candida albicans", "assay": "MIC against Candida albicans", "type": "cell-based", "conditions": "table prints none, read-out: MIC"}, "[4]": {"conditions": "E. faecium HM 968 Strain ERV102"}, "[5]": {"conditions": "E. faecium NR31914 Strain E0120"}, "[6]": {"conditions": "E. faecium Patient #1–1 NR-31903"}, "[7]": {"conditions": "E. faecalis NR31972 Strain SF 28073"}}, "note": "Where two headings read alike, the source gives them in different places.", "data": [{"smiles": "O=C(O)[C@H](Cc1ccccc1)N1C(=O)/C(=C/c2cccc(OC/C=C/c3ccc(Cl)c(Cl)c3)c2)SC1=S", "note": "[Rh 6]", "values": [{"measurement": "MIC", "setting": "Acinetobacter baumannii; Acinetobacter baumannii ATCC BAA747, colistin (+) […], read-out: MIC", "result": ">64", "unit": "µM"}, {"measurement": "MIC", "setting": "Acinetobacter baumannii; Acinetobacter baumannii ATCC BAA19606, colistin (+) […], read-out: MIC", "result": ">64", "unit": "µM"}, {"measurement": "MIC", "setting": "Acinetobacter baumannii; Acinetobacter baumannii, ATCCBAA747", "result": "> 128", "unit": "µM"}, {"measurement": "MIC", "setting": "Acinetobacter baumannii; Acinetobacter baumannii, ATCCBAA19606", "result": "> 128", "unit": "µM"}, {"measurement": "MIC50", "setting": "[1]; 11 MRSA strains", "result": 4, "unit": "µM"}, {"measurement": "MIC90", "setting": "[1]; 11 MRSA strains", "result": 8, "unit": "µM"}, {"measurement": "MBC", "setting": "[1]; MRSA NRS 1", "result": 8, "unit": "µM"}, {"measurement": "MIC", "setting": "[1]; MRSA NRS 1", "result": 8, "unit": "µM"}, {"measurement": "MBC", "setting": "[1]; MRSA NRS 19", "result": 8, "unit": "µM"}, {"measurement": "MIC", "setting": "[1]; MRSA NRS 19", "result": 8, "unit": "µM"}, {"measurement": "MBC", "setting": "[1]; MRSA NRS 37", "result": 16, "unit": "µM"}, {"measurement": "MIC", "setting": "[1]; MRSA NRS 37", "result": 8, "unit": "µM"}, {"measurement": "MBC", "setting": "[1]; MRSA NRS 107", "result": 8, "unit": "µM"}, {"measurement": "MIC", "setting": "[1]; MRSA NRS 107", "result": 8, "unit": "µM"}, {"measurement": "MBC", "setting": "[1]; MRSA NRS 119", "result": 4, "unit": "µM"}, {"measurement": "MIC", "setting": "[1]; MRSA NRS 119", "result": 4, "unit": "µM"}, {"measurement": "MBC", "setting": "[1]; MRSA NRS 382", "result": 16, "unit": "µM"}, {"measurement": "MIC", "setting": "[1]; MRSA NRS 382", "result": 4, "unit": "µM"}, {"measurement": "MBC", "setting": "[1]; MRSA NRS 383", "result": 8, "unit": "µM"}, {"measurement": "MIC", "setting": "[1]; MRSA NRS 383", "result": 4, "unit": "µM"}, {"measurement": "MBC", "setting": "[1]; MRSA NRS 384", "result": 4, "unit": "µM"}, {"measurement": "MIC", "setting": "[1]; MRSA NRS 384", "result": 4, "unit": "µM"}, {"measurement": "MBC", "setting": "[1]; MRSA NRS 385", "result": 4, "unit": "µM"}, {"measurement": "MIC", "setting": "[1]; MRSA NRS 385", "result": 4, "unit": "µM"}, {"measurement": "MBC", "setting": "[1]; MRSA NRS 386", "result": 32, "unit": "µM"}, {"measurement": "MIC", "setting": "[1]; MRSA NRS 386", "result": 4, "unit": "µM"}, {"measurement": "MBC", "setting": "[1]; MRSA NRS 387", "result": 8, "unit": "µM"}, {"measurement": "MIC", "setting": "[1]; MRSA NRS 387", "result": 4, "unit": "µM"}, {"measurement": "MIC", "setting": "P. aeruginosa; ATCC9721", "result": "> 128", "unit": "µM"}, {"measurement": "MIC", "setting": "P. aeruginosa; ATCC15442", "result": "> 128", "unit": "µM"}, {"measurement": "MIC", "setting": "K. pneumoniae; K. pneumoniae NR-15417", "result": ">128", "unit": "µM"}, {"measurement": "MIC", "setting": "K. pneumoniae; Klebsiella pneumoniae", "result": "> 128", "unit": "µM"}, {"measurement": "MBC", "setting": "[2]; E. faecium E417 HM-965", "result": "> 64", "unit": "µM"}, {"measurement": "MIC", "setting": "[2]; E. faecium E417 HM-965", "result": 4, "unit": "µM"}, {"measurement": "MBC", "setting": "[2]; E. faecium E1071 NR-28978", "result": "> 64", "unit": "µM"}, {"measurement": "MIC", "setting": "[2]; E. faecium E1071 NR-28978", "result": 8, "unit": "µM"}, {"measurement": "MBC", "setting": "[2]; [4]", "result": "> 64", "unit": "µM"}, {"measurement": "MIC", "setting": "[2]; [4]", "result": 8, "unit": "µM"}, {"measurement": "MBC", "setting": "[2]; [5]", "result": 64, "unit": "µM"}, {"measurement": "MIC", "setting": "[2]; [5]", "result": 8, "unit": "µM"}, {"measurement": "MBC", "setting": "[2]; [6]", "result": "> 64", "unit": "µM"}, {"measurement": "MIC", "setting": "[2]; [6]", "result": 4, "unit": "µM"}, {"measurement": "MIC50", "setting": "Bacillus Strains", "result": 4, "unit": "µM"}, {"measurement": "MIC90", "setting": "Bacillus Strains", "result": 4, "unit": "µM"}, {"measurement": "MIC", "setting": "Pseudomonas aeruginosa; Pseudomonas aeruginosa ATCC 9721, PMBN (+) 4 μg/mL, read-out: MIC", "result": ">64", "unit": "µM"}, {"measurement": "MIC", "setting": "Pseudomonas aeruginosa; Pseudomonas aeruginosa, ATCC9721", "result": "> 128", "unit": "µM"}, {"measurement": "MBC", "setting": "[3]; E. faecalis ERV103 HM-934", "result": 16, "unit": "µM"}, {"measurement": "MIC", "setting": "[3]; E. faecalis ERV103 HM-934", "result": 8, "unit": "µM"}, {"measurement": "MBC", "setting": "[3]; [7]", "result": 16, "unit": "µM"}, {"measurement": "MIC", "setting": "[3]; [7]", "result": 8, "unit": "µM"}, {"measurement": "MBC", "setting": "[3]; E. faecalis R712 HM-335", "result": 8, "unit": "µM"}, {"measurement": "MIC", "setting": "[3]; E. faecalis R712 HM-335", "result": 4, "unit": "µM"}, {"measurement": "MBC", "setting": "[3]; E. faecalis S613 HM-334", "result": 16, "unit": "µM"}, {"measurement": "MIC", "setting": "[3]; E. faecalis S613 HM-334", "result": 8, "unit": "µM"}, {"measurement": "MBC", "setting": "[3]; E. faecalis TX0104 HM-201", "result": 8, "unit": "µM"}, {"measurement": "MIC", "setting": "[3]; E. faecalis TX0104 HM-201", "result": 8, "unit": "µM"}, {"measurement": "MIC", "setting": "MRSA USA300; 24 h, Media TSB + 4% HSA", "result": "> 64", "unit": "µM"}, {"measurement": "MIC", "setting": "MRSA USA300; Media TSB", "result": 8, "unit": "µM"}, {"measurement": "MIC", "setting": "Clostridium difficile; C. difficile HM-88", "result": 4, "unit": "µM"}, {"measurement": "MIC", "setting": "Clostridium difficile; C. difficile HM-745", "result": 4, "unit": "µM"}, {"measurement": "MIC", "setting": "Clostridium difficile; C. difficile HM-746", "result": 2, "unit": "µM"}, {"measurement": "MIC", "setting": "Clostridium difficile; C. difficile Isolate-1 NR-13427", "result": 4, "unit": "µM"}, {"measurement": "MIC", "setting": "Clostridium difficile; C. difficile Toxigenic Strain P8 NR-32888", "result": 8, "unit": "µM"}, {"measurement": "MIC", "setting": "Klebsiella pneumoniae; Klebsiella pneumoniae ATCC BAA 1706, PMBN (+) 4 μg/mL", "result": ">64", "unit": "µM"}, {"measurement": "MIC", "setting": "Klebsiella pneumoniae; Klebsiella pneumoniae ATCC BAA 2146, PMBN (+) 4 μg/mL", "result": ">64", "unit": "µM"}, {"measurement": "MIC", "setting": "Klebsiella pneumoniae; Klebsiella pneumoniae, BAA1706", "result": "> 128", "unit": "µM"}, {"measurement": "MIC", "setting": "Klebsiella pneumoniae; Klebsiella pneumoniae, BAA2146", "result": "> 128", "unit": "µM"}, {"measurement": "MIC", "setting": "Candida albicans; ATCC10231, C. albicans ATCC 10231, unit from abstract", "result": "> 64", "unit": "µM"}, {"measurement": "MIC", "setting": "Candida albicans; C. albicans NR 29434, unit from abstract", "result": "> 64", "unit": "µM"}, {"measurement": "MIC", "setting": "Candida albicans; C. albicans NR 29435, unit from abstract", "result": "> 64", "unit": "µM"}, {"measurement": "MIC", "setting": "Candida albicans; C. albicans NR29437, unit from abstract", "result": "> 64", "unit": "µM"}, {"measurement": "MIC", "setting": "Candida albicans; C. albicans NR29438, unit from abstract", "result": "> 64", "unit": "µM"}, {"measurement": "MIC", "setting": "Candida albicans; C. albicans NR 29446, unit from abstract", "result": "> 64", "unit": "µM"}, {"measurement": "MIC", "setting": "Candida albicans; C. albicans NR 29448, unit from abstract", "result": "> 64", "unit": "µM"}, {"measurement": "MIC", "setting": "Candida albicans; C. albicans NR 29449, unit from abstract", "result": "> 64", "unit": "µM"}, {"measurement": "MIC", "setting": "Candida albicans; C. albicans NR 29453, unit from abstract", "result": "> 64", "unit": "µM"}, {"measurement": "MIC", "setting": "Candida albicans; C. albicans NR 294436, unit from abstract", "result": "> 64", "unit": "µM"}]}]}
